Values quoted from earlier work in patent publication US20180318338A1, “METHODS AND COMPOSITIONS FOR THE PREVENTION OF SUICIDE, HOMICIDE AND SELF-HARMING BEHAVIORS” (THE MCLEAN HOSPITAL CORPORATION, priority 2015, published 2018).

Settings: in vivo

blood level of xenon: 100 to 200 nL xenon/mL blood
SMILES: [Xe] [xenon]
